In patent US10681909B2, “Herbicidal triazoles” (FMC Corporation, priority 2014, dated 2020):

Legend:
chamomile = experiment: Test D preemergence; assay type: in vivo, Matricaria inodora; details: scale 0 to 100
Excerpt: (§1) Seeds of plant species selected from bluegrass (annual bluegrass, Poa annua), blackgrass (Alopecurus myosuroides), canarygrass (Phalaris minor), chickweed (common chickweed, Stellaria media), galium (catchweed bedstraw, Galium aparine), bromegrass, down (downy bromegrass, Bromus tectorum), Russian thistle (Salsola kali), field poppy (Papaver rhoeas), field violet (Viola arvensis), foxtail, green (green foxtail, Setaria viridis), deadnettle (henbit deadnettle, Lamium amplexicaule), ryegrass, Ital. (Italian ryegrass, Lolium multiflorum), kochia (Kochia scoparia), lambsquarters (Chenopodium album), oilseed rape (Brassica napus), pigweed (Amaranthus retroflexus), chamomile (scentless chamomile, Matricaria inodora), speedwell (bird's-eye speedwell, Veronica persica), barley, spring (spring barley, Hordeum vulgare), wheat, spring (spring wheat, Triticum aestivum), buckwheat, wild (wild buckwheat, Polygonum convolvulus), wild mustard (Sinapis arvensis), oat, wild (wild oat, Avena fatua), radish, wild (wild radish, Raphanus raphanistrum), […]), barley, winter (winter barley, Hordeum vulgare), and wheat, winter (winter wheat, Triticum aestivum) were planted into a silt loam soil and treated preemergence with test chemicals formulated in a non-phytotoxic solvent mixture which included a surfactant. At the same time, these species were planted in pots containing Sunshine Redi-Earth® planting medium comprising spaghnum peat moss, vermiculite, starter nutrients and dolomitic limestone and treated with postemergence applications of the test chemicals formulated in the same manner. Plants ranged in height from 2 to 18 cm (1- to 4-leaf stage). Treated plants and controls were maintained in a controlled growth environment for 14 to 21 d after which time all species were compared to controls and visually evaluated. […] A dash (-) response means no test result.

velvetleaf [1] = experiment: Test A preemergence; assay type: in vivo, Abutilon theophrasti; details: Abutilon theophrasti, pre-emergence, 240 h, 0 to 100 scale (0 no effect, 100 complete control), read-out: Plant response rating, Velvetleaf; for pest or weed control at 125 g/ha: 125 g ai/ha; for pest or weed control at 500 g/ha: 500 g ai/ha, approx. 10 d
How it was run: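 Plant seeds in loam soil blended with sand, then apply test chemical preemergence as a directed soil spray; in parallel, spray potted seedlings (one- to two-leaf, 2 to 10 cm) postemergence. Both treatments use a non-phytotoxic solvent mixture with surfactant.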

deadnettle [2] = experiment: Test D postemergence; assay type: in vivo, Lamium amplexicaule; details: scale 0 to 100
Excerpt: as §1

oat, wild = experiment: Test D preemergence; assay type: in vivo, Avena fatua; details: scale 0 to 100
Excerpt: as §1

canarygrass [3] = experiment: Test D postemergence; assay type: in vivo, Phalaris minor; details: scale 0 to 100
Excerpt: as §1

velvetleaf [4] = experiment: Test C preemergence; assay type: in vivo, Abutilon theophrasti; details: for Velvetleaf plant response rating (0 to 100): Preemergence, visual rating after 13 to 15 d; for Plant response rating (scale of 0 to 100 where 0 is no effect and 100 is complete control): Velvetleaf, preemergence, 250 g ai/ha
How it was run: (§2)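 Seeds were planted in loam soil plus sand and sprayed preemergence. In parallel, potted plants in a peat-based medium were sprayed postemergence at 2 to 18 cm (1- to 4-leaf stage). Compounds were formulated in non-phytotoxic solvent with surfactant.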

bluegrass = experiment: Test D postemergence; assay type: in vivo, Poa annua; details: scale 0 to 100
Excerpt: as §1

wheat (winter wheat) = experiment: Test C preemergence; assay type: in vivo, Triticum aestivum; details: for Wheat plant response rating (0 to 100): Preemergence, visual rating after 13 to 15 d; for Plant response rating (scale of 0 to 100 where 0 is no effect and 100 is complete control): Wheat, preemergence, 250 g ai/ha
How it was run: as §2

corn = experiment: Test C preemergence; assay type: in vivo, Zea mays; details: for Plant response rating (scale of 0 to 100 where 0 is no effect and 100 is complete control): Corn, preemergence; for Corn plant response rating (0 to 100): Preemergence, visual rating after 13 to 15 d
How it was run: as §2

canarygrass [5] = experiment: Test D preemergence; assay type: in vivo, Phalaris minor; details: scale 0 to 100
Excerpt: as §1

chickweed = experiment: Test D preemergence; assay type: in vivo, Stellaria media; details: scale 0 to 100
Excerpt: as §1

johnsongrass = experiment: Test C preemergence; assay type: in vivo, Sorghum halepense; details: for Plant response rating (scale of 0 to 100 where 0 is no effect and 100 is complete control): Johnsongrass, preemergence; for Johnsongrass plant response rating (0 to 100): Preemergence, visual rating after 13 to 15 d
How it was run: as §2

deadnettle [6] = experiment: Test D preemergence; assay type: in vivo, Lamium amplexicaule; details: scale 0 to 100
Excerpt: as §1

speedwell = experiment: Test D postemergence; assay type: in vivo, Veronica persica; details: scale 0 to 100
Excerpt: as §1

CCc1nc(-c2ccc(C(F)(F)F)cc2)nn1Cc1ccnc(C(F)(F)F)c1 [Compound 1, 4-[[5-ethyl-3-[4-(trifluoromethyl)phenyl]-1H-1,2,4-triazol-1-yl]methyl]-2-(trifluoromethyl)pyridine]
Plant response rating: Chamomile (chamomile; 31 g ai/ha): 0 | Plant response rating: Chamomile (chamomile; 62 g ai/ha): 20 | Plant response rating: Chamomile (chamomile; 125 g ai/ha): 80 | Plant response rating: Chamomile (chamomile; 250 g ai/ha): 100 | pest or weed control at 125 g/ha (velvetleaf [1]): 30% | pest or weed control at 500 g/ha (velvetleaf [1]): 100% | Plant response rating: Deadnettle (deadnettle [2]; 31 g ai/ha): 65 | Plant response rating: Deadnettle (deadnettle [2]; 62 g ai/ha): 60 | Plant response rating: Deadnettle (deadnettle [2]; 125 g ai/ha): 70 | Plant response rating: Deadnettle (deadnettle [2]; 250 g ai/ha): 85 | Plant response rating: Oat, Wild (oat, wild; 62 g ai/ha): 0 | Plant response rating: Oat, Wild (oat, wild; 125 g ai/ha): 15 | Plant response rating: Oat, Wild (oat, wild; 250 g ai/ha): 45 | Plant response rating: Canarygrass (canarygrass [3]; 31 g ai/ha): 15 | Plant response rating: Canarygrass (canarygrass [3]; 62 g ai/ha): 20 | Plant response rating: Canarygrass (canarygrass [3]; 125 g ai/ha): 35 | Plant response rating: Canarygrass (canarygrass [3]; 250 g ai/ha): 65 | Velvetleaf plant response rating (0 to 100) (velvetleaf [4]; 31 g ai/ha): 15 | Velvetleaf plant response rating (0 to 100) (velvetleaf [4]; 62 g ai/ha): 30 | Plant response rating (scale of 0 to 100 where 0 is no effect and 100 is complete control) (velvetleaf [4]): 75 | Plant response rating: Bluegrass (bluegrass; 31 g ai/ha): 10 | Plant response rating: Bluegrass (bluegrass; 62 g ai/ha): 20 | Plant response rating: Bluegrass (bluegrass; 125 g ai/ha): 35 | Plant response rating: Bluegrass (bluegrass; 250 g ai/ha): 55 | Wheat plant response rating (0 to 100) (wheat (winter wheat); 31 g ai/ha): 0 | Wheat plant response rating (0 to 100) (wheat (winter wheat); 62 g ai/ha): 0 | Plant response rating (scale of 0 to 100 where 0 is no effect and 100 is complete control) (wheat (winter wheat)): 5 | Plant response rating (scale of 0 to 100 where 0 is no effect and 100 is complete control) (corn; 125 g ai/ha): 25 | Plant response rating (scale of 0 to 100 where 0 is no effect and 100 is complete control) (corn; 250 g ai/ha): 40 | Corn plant response rating (0 to 100) (corn; 31 g ai/ha): 5 | Corn plant response rating (0 to 100) (corn; 62 g ai/ha): 15 | Plant response rating: Canarygrass (canarygrass [5]; 31 g ai/ha): 5 | Plant response rating: Canarygrass (canarygrass [5]; 62 g ai/ha): 30 | Plant response rating: Canarygrass (canarygrass [5]; 125 g ai/ha): 60 | Plant response rating: Canarygrass (canarygrass [5]; 250 g ai/ha): 100 | Plant response rating: Chickweed (chickweed; 31 g ai/ha): 90 | Plant response rating: Chickweed (chickweed; 62 g ai/ha): 100 | Plant response rating: Chickweed (chickweed; 125 g ai/ha): 100 | Plant response rating: Chickweed (chickweed; 250 g ai/ha): 100 | Plant response rating (scale of 0 to 100 where 0 is no effect and 100 is complete control) (johnsongrass; 125 g ai/ha): 55 | Plant response rating (scale of 0 to 100 where 0 is no effect and 100 is complete control) (johnsongrass; 250 g ai/ha): 80 | Johnsongrass plant response rating (0 to 100) (johnsongrass; 31 g ai/ha): 25 | Johnsongrass plant response rating (0 to 100) (johnsongrass; 62 g ai/ha): 35 | Plant response rating: Deadnettle (deadnettle [6]; 31 g ai/ha): 100 | Plant response rating: Deadnettle (deadnettle [6]; 62 g ai/ha): 100 | Plant response rating: Deadnettle (deadnettle [6]; 125 g ai/ha): 100 | Plant response rating: Deadnettle (deadnettle [6]; 250 g ai/ha): 100 | Plant response rating: Speedwell (speedwell; 31 g ai/ha): 100 | Plant response rating: Speedwell (speedwell; 62 g ai/ha): 100 | Plant response rating: Speedwell (speedwell; 125 g ai/ha): 100 | Plant response rating: Speedwell (speedwell; 250 g ai/ha): 100

CCOc1nc(-c2ccc(F)cc2)nn1Cc1ccnc(C(F)(F)F)c1 [Compound 8, 4-[[5-ethoxy-3-(4-fluorophenyl)-1H-1,2,4-triazol-1-yl]methyl]-2-(trifluoromethyl)pyridine]
Plant response rating: Chamomile (chamomile; 31 g ai/ha): 10 | Plant response rating: Chamomile (chamomile; 62 g ai/ha): 30 | Plant response rating: Chamomile (chamomile; 125 g ai/ha): 100 | Plant response rating: Chamomile (chamomile; 250 g ai/ha): 100 | pest or weed control at 125 g/ha (velvetleaf [1]): 70% | pest or weed control at 500 g/ha (velvetleaf [1]): 90% | Plant response rating: Deadnettle (deadnettle [2]; 31 g ai/ha): 75 | Plant response rating: Deadnettle (deadnettle [2]; 62 g ai/ha): 80 | Plant response rating: Deadnettle (deadnettle [2]; 125 g ai/ha): 95 | Plant response rating: Deadnettle (deadnettle [2]; 250 g ai/ha): 90 | Plant response rating: Oat, Wild (oat, wild; 62 g ai/ha): 40 | Plant response rating: Oat, Wild (oat, wild; 125 g ai/ha): 70 | Plant response rating: Oat, Wild (oat, wild; 250 g ai/ha): 80 | Plant response rating: Canarygrass (canarygrass [3]; 31 g ai/ha): 55 | Plant response rating: Canarygrass (canarygrass [3]; 62 g ai/ha): 60 | Plant response rating: Canarygrass (canarygrass [3]; 125 g ai/ha): 65 | Plant response rating: Canarygrass (canarygrass [3]; 250 g ai/ha): 75 | Velvetleaf plant response rating (0 to 100) (velvetleaf [4]; 31 g ai/ha): 70 | Velvetleaf plant response rating (0 to 100) (velvetleaf [4]; 62 g ai/ha): 85 | Plant response rating (scale of 0 to 100 where 0 is no effect and 100 is complete control) (velvetleaf [4]): 100 | Plant response rating: Bluegrass (bluegrass; 31 g ai/ha): 55 | Plant response rating: Bluegrass (bluegrass; 62 g ai/ha): 65 | Plant response rating: Bluegrass (bluegrass; 125 g ai/ha): 75 | Plant response rating: Bluegrass (bluegrass; 250 g ai/ha): 75 | Wheat plant response rating (0 to 100) (wheat (winter wheat); 31 g ai/ha): 35 | Wheat plant response rating (0 to 100) (wheat (winter wheat); 62 g ai/ha): 45 | Plant response rating (scale of 0 to 100 where 0 is no effect and 100 is complete control) (wheat (winter wheat)): 80 | Plant response rating (scale of 0 to 100 where 0 is no effect and 100 is complete control) (corn; 125 g ai/ha): 65 | Plant response rating (scale of 0 to 100 where 0 is no effect and 100 is complete control) (corn; 250 g ai/ha): 65 | Corn plant response rating (0 to 100) (corn; 31 g ai/ha): 35 | Corn plant response rating (0 to 100) (corn; 62 g ai/ha): 55 | Plant response rating: Canarygrass (canarygrass [5]; 31 g ai/ha): 50 | Plant response rating: Canarygrass (canarygrass [5]; 62 g ai/ha): 100 | Plant response rating: Canarygrass (canarygrass [5]; 125 g ai/ha): 100 | Plant response rating: Canarygrass (canarygrass [5]; 250 g ai/ha): 100 | Plant response rating: Chickweed (chickweed; 31 g ai/ha): 100 | Plant response rating: Chickweed (chickweed; 62 g ai/ha): 100 | Plant response rating: Chickweed (chickweed; 125 g ai/ha): 100 | Plant response rating: Chickweed (chickweed; 250 g ai/ha): 100 | Plant response rating (scale of 0 to 100 where 0 is no effect and 100 is complete control) (johnsongrass; 125 g ai/ha): 98 | Plant response rating (scale of 0 to 100 where 0 is no effect and 100 is complete control) (johnsongrass; 250 g ai/ha): 100 | Johnsongrass plant response rating (0 to 100) (johnsongrass; 31 g ai/ha): 85 | Johnsongrass plant response rating (0 to 100) (johnsongrass; 62 g ai/ha): 98 | Plant response rating: Deadnettle (deadnettle [6]; 31 g ai/ha): 100 | Plant response rating: Deadnettle (deadnettle [6]; 62 g ai/ha): 100 | Plant response rating: Deadnettle (deadnettle [6]; 125 g ai/ha): 100 | Plant response rating: Deadnettle (deadnettle [6]; 250 g ai/ha): 100 | Plant response rating: Speedwell (speedwell; 31 g ai/ha): 100 | Plant response rating: Speedwell (speedwell; 62 g ai/ha): 100 | Plant response rating: Speedwell (speedwell; 125 g ai/ha): 100 | Plant response rating: Speedwell (speedwell; 250 g ai/ha): 100
